Test results reported in the NIST ThermoML archive (doi:10.1016/j.fluid.2014.09.014).
± gives the expanded uncertainty stated by the source.

Key:
[1] = 298.15 K; 101.33 kPa; Liquid; mechanical oscillator
[2] = refractive index (Na D-line) (dimensionless); conditions: 298.15 K; 101.33 kPa; Liquid; Standard Abbe refractometry
[3] = Boiling temperature at pressure P; conditions: Liquid, Ebulliometric method (Recirculating still)
[4] = refractive index (other wavelength) (dimensionless); xn = mol fraction of the nth substance listed; conditions: 101 kPa, Liquid, Standard Abbe refractometry
[5] = xn = mol fraction of the nth substance listed; conditions: 101 kPa, Liquid, mechanical oscillator

CC(C)OC(C)C [diisopropyl ether]
Conditions	mass density [kg/m3]	refractive index
[1]	718.3 ± 0.24	–
[2]	–	1.3653 ± 0.0005

CO [methanol]
Conditions	mass density [kg/m3]	refractive index
[1]	786.62 ± 0.12	–
[2]	–	1.32666 ± 0.00033

[3]
Conditions	Boiling temperature at pressure P [°C]
26.55 kPa	33.76 ± 0.29
29.52 kPa	36.0 ± 0.31
32.46 kPa	37.94 ± 0.31
35.65 kPa	39.93 ± 0.32
37.8 kPa	41.19 ± 0.32
40.63 kPa	42.76 ± 0.33
43.23 kPa	44.12 ± 0.33
44.63 kPa	44.83 ± 0.32
48.35 kPa	46.62 ± 0.34
51.4 kPa	48.00 ± 0.34
53.97 kPa	49.11 ± 0.34
56.89 kPa	50.32 ± 0.34
59.55 kPa	51.38 ± 0.34
62.25 kPa	52.41 ± 0.35
64.9 kPa	53.39 ± 0.35
67.5 kPa	54.32 ± 0.35
70.07 kPa	55.21 ± 0.35
72.95 kPa	56.17 ± 0.35
75.66 kPa	57.1 ± 0.36
78.35 kPa	57.90 ± 0.36
81.05 kPa	58.72 ± 0.36
83.76 kPa	59.52 ± 0.36
86.46 kPa	60.30 ± 0.35
96.35 kPa	63.00 ± 0.39

CO [methanol] + CC(C)OC(C)C
refractive index, [4], x1 = 1
Conditions	Wavelength=40.47 nm	Wavelength=435.8 nm	Wavelength=486.1 nm	Wavelength=546.1 nm	Wavelength=587.6 nm	Wavelength=589.3 nm	Wavelength=632.8 nm	Wavelength=644 nm	Wavelength=706.5 nm
293.15 K	1.33767 ± 0.00032	1.3353 ± 0.00032	1.3324 ± 0.00032	1.32991 ± 0.00031	1.32869 ± 0.00031	1.32864 ± 0.00031	1.32754 ± 0.00031	1.3273 ± 0.00031	1.3261 ± 0.00031
298.15 K	1.33564 ± 0.00032	1.3333 ± 0.00032	1.3304 ± 0.00032	1.328 ± 0.00031	1.32671 ± 0.00031	1.32666 ± 0.00031	1.32558 ± 0.00031	1.32535 ± 0.00031	1.32415 ± 0.00031
303.15 K	1.33357 ± 0.00032	1.33126 ± 0.00032	1.32839 ± 0.00032	1.32597 ± 0.00032	1.32471 ± 0.00031	1.32467 ± 0.00031	1.3236 ± 0.00031	1.32336 ± 0.00031	1.32219 ± 0.00031
308.15 K	1.33153 ± 0.00032	1.32926 ± 0.00032	1.32637 ± 0.00032	1.32397 ± 0.00032	1.32274 ± 0.00031	1.32269 ± 0.00031	1.32163 ± 0.00031	1.32138 ± 0.00031	1.32021 ± 0.00031
313.15 K	1.32947 ± 0.00032	1.32722 ± 0.00032	1.32434 ± 0.00032	1.32196 ± 0.00032	1.32073 ± 0.00032	1.32068 ± 0.00031	1.31965 ± 0.00031	1.31942 ± 0.00031	1.31825 ± 0.00031
318.15 K	1.32742 ± 0.00032	1.32518 ± 0.00032	1.32234 ± 0.00032	1.31993 ± 0.00032	1.31874 ± 0.00031	1.3187 ± 0.00031	1.31768 ± 0.00031	1.31744 ± 0.00031	1.31631 ± 0.00031

[5], x1 = 1
Conditions	mass density [kg/m3]
293.15 K	791.62 ± 0.21
298.15 K	786.62 ± 0.21
303.15 K	781.54 ± 0.21
308.15 K	776.5 ± 0.21
313.15 K	771.53 ± 0.21
318.15 K	766.6 ± 0.21

CC(C)O [propan-2-ol]
Conditions	mass density [kg/m3]	refractive index
[1]	782.45 ± 0.11	–
[2]	–	1.37522 ± 0.00033

[3]
Conditions	Boiling temperature at pressure P [°C]
14.02 kPa	39.48 ± 0.27
16.09 kPa	42.07 ± 0.28
18.94 kPa	45.20 ± 0.29
21.65 kPa	47.82 ± 0.3
24.56 kPa	50.31 ± 0.3
26.99 kPa	52.21 ± 0.3
29.69 kPa	54.2 ± 0.31
32.53 kPa	56.04 ± 0.31
36.08 kPa	58.20 ± 0.32
38.28 kPa	59.5 ± 0.32
40.49 kPa	60.7 ± 0.32
43.63 kPa	62.27 ± 0.33
45.88 kPa	63.37 ± 0.32
48.77 kPa	64.71 ± 0.33
51.47 kPa	65.91 ± 0.33
54.24 kPa	67.08 ± 0.33
56.82 kPa	68.12 ± 0.33
59.59 kPa	69.20 ± 0.34
62.14 kPa	70.2 ± 0.34
65.69 kPa	71.43 ± 0.35
67.6 kPa	72.09 ± 0.34
70.27 kPa	72.98 ± 0.34
73.16 kPa	73.93 ± 0.35
75.65 kPa	74.72 ± 0.35
78.35 kPa	75.6 ± 0.35
81.05 kPa	76.36 ± 0.35
83.8 kPa	77.16 ± 0.36
86.4 kPa	77.90 ± 0.34
96.28 kPa	80.54 ± 0.38

CC(C)O [propan-2-ol] + CC(C)OC(C)C
refractive index, [4], x2 = 0
Conditions	Wavelength=404.7 nm	Wavelength=435.8 nm	Wavelength=486.1 nm	Wavelength=546.1 nm	Wavelength=587.6 nm	Wavelength=589.3 nm	Wavelength=632.8 nm	Wavelength=644 nm	Wavelength=706.5 nm
293.5 K	1.3883 ± 0.00032	1.38525 ± 0.00032	1.38179 ± 0.00032	1.37892 ± 0.00032	1.37742 ± 0.00032	1.37736 ± 0.00032	1.37605 ± 0.00032	1.37574 ± 0.00032	1.37424 ± 0.00032
298.15 K	1.3861 ± 0.00032	1.38307 ± 0.00032	1.37963 ± 0.00032	1.37678 ± 0.00032	1.37527 ± 0.00032	1.37522 ± 0.00032	1.37392 ± 0.00032	1.37361 ± 0.00032	1.37214 ± 0.00032
303.15 K	1.38379 ± 0.00032	1.38078 ± 0.00032	1.37738 ± 0.00032	1.37453 ± 0.00032	1.37304 ± 0.00032	1.37299 ± 0.00032	1.3717 ± 0.00032	1.3714 ± 0.00032	1.36993 ± 0.00032
308.15 K	1.38152 ± 0.00032	1.37851 ± 0.00032	1.37512 ± 0.00032	1.3723 ± 0.00032	1.3708 ± 0.00032	1.37075 ± 0.00032	1.36946 ± 0.00032	1.36917 ± 0.00032	1.36772 ± 0.00032
313.15 K	1.37921 ± 0.00032	1.37624 ± 0.00032	1.37288 ± 0.00032	1.37005 ± 0.00032	1.36857 ± 0.00032	1.36852 ± 0.00032	1.36726 ± 0.00032	1.36696 ± 0.00032	1.36551 ± 0.00032
318.15 K	1.37691 ± 0.00032	1.37397 ± 0.00032	1.37061 ± 0.00032	1.36782 ± 0.00032	1.36635 ± 0.00032	1.36629 ± 0.00032	1.36502 ± 0.00032	1.36473 ± 0.00032	1.36329 ± 0.00032

[5], x2 = 0
Conditions	mass density [kg/m3]
293.15 K	786.91 ± 0.21
298.15 K	782.45 ± 0.21
303.15 K	777.84 ± 0.21
308.15 K	773.13 ± 0.21
313.15 K	768.47 ± 0.21
318.15 K	763.79 ± 0.21
